{"source": "paper PMC6713628", "about": "(Investigational new drugs, 2019)", "key": {"white blood cells": {"system": "white blood cells", "test": "Emax model of percent decrease of WBC from baseline to nadir versus exposure", "format": "in vivo, cancer patients with solid tumors (humans)"}, "platelets": {"system": "platelets", "format": "in vivo, cancer patients with solid tumors (humans)", "settings": "sigmoid Emax model"}, "[1]": {"settings": "lactone form; ref 32 (Leggas et al., 2009); cited from earlier work"}, "[2]": {"settings": "more lipophilic than camptothecin; cited from earlier work"}, "UGT1A1": {"system": "UGT1A1", "settings": "primarily hepatic UGT1A1; cited from earlier work"}, "[3]": {"settings": "for IIV of clearance: univariate analysis"}}, "note": "Where two headings read alike, the source gives them in different places.", "data": [{"smiles": "CC[C@@]1(O)C(=O)OCc2c1cc1n(c2=O)Cc2c-1nc1ccc(O)cc1c2[Si](C)(C)C(C)(C)C", "note": "[AR-67, 7-t-butyldimethylsilyl-10-hydroxycamptothecin]", "values": [{"measurement": "AUC ED50, percent decrease of WBC", "setting": "white blood cells; AUC0-∞ as independent variable, hyperbolic Emax model, 22 patients, Cycle 1", "value": 397.6, "unit": "ng·h/mL"}, {"measurement": "Cmax ED50, percent decrease of WBC", "setting": "white blood cells; Cmax as independent variable, sigmoid Emax model", "value": 0.3268, "unit": "µg/mL"}, {"measurement": "AUC ED50, percent decrease of platelets", "setting": "platelets; AUC0-∞ as independent variable, 22 patients, Cycle 1", "value": 276.8, "unit": "ng·h/mL"}, {"measurement": "Cmax ED50, percent decrease of platelets", "setting": "platelets; Cmax as independent variable", "value": 0.2811, "unit": "µg/mL"}, {"measurement": "overall protein binding, lactone", "setting": "[1]", "value": 95.4, "unit": "%"}, {"measurement": "lipophilicity relative to camptothecin", "setting": "[2]", "value": "about 25 times"}, {"measurement": "in vitro interaction with UGT1A1", "setting": "UGT1A1", "value": "weak"}, {"measurement": "AGE on V1 (covariate effect exponent), estimate", "setting": "[3]; V1=V1TV×(AGE/62)^θ, original dataset", "value": 3.36}, {"measurement": "Interindividual variability in V1", "setting": "[3]; before incorporation of age into the model", "value": 118, "unit": "%"}, {"measurement": "AGE on V1, bootstrap median", "setting": "[3]; bootstrap n=1000 datasets", "value": 3.48}, {"measurement": "CL, bootstrap median", "setting": "[3]; bootstrap n=1000 datasets", "value": 31.9, "unit": "L/h"}, {"measurement": "Q, bootstrap median", "setting": "[3]; bootstrap n=1000 datasets", "value": 29.0, "unit": "L/h"}, {"measurement": "V1, bootstrap median", "setting": "[3]; bootstrap n=1000 datasets", "value": 6.65, "unit": "L"}, {"measurement": "V2, bootstrap median", "setting": "[3]; bootstrap n=1000 datasets", "value": 25.8, "unit": "L"}, {"measurement": "ω2 V1, bootstrap median", "setting": "[3]; bootstrap n=1000 datasets", "value": 0.856}, {"measurement": "Interindividual variability (CV%) of population CL", "setting": "[3]; final model", "value": 29.1, "unit": "%"}, {"measurement": "V2 (peripheral volume), population estimate", "setting": "[3]; final model, original dataset", "value": 25.0, "unit": "L"}, {"measurement": "ω2 CL (interindividual variability), estimate", "setting": "[3]; final model, original dataset", "value": 0.0849}, {"measurement": "ω2 V1 (interindividual variability), estimate", "setting": "[3]; final model, original dataset", "value": 0.957}, {"measurement": "V1 (central volume), population estimate", "setting": "[3]; final model, original dataset, typical value for subjects aged 62 years", "value": 6.83, "unit": "L"}, {"measurement": "Interindividual variability (CV%) of population V1", "setting": "[3]; final model, with age as covariate", "value": 97.8, "unit": "%"}, {"measurement": "IIV of clearance", "setting": "[3]; BSA included as covariate on CL", "value": 25.5, "unit": "%"}, {"measurement": "IIV of clearance", "setting": "[3]; before inclusion of BSA", "value": 29.2, "unit": "%"}]}]}
